According to patent US20220324835A1 (Nurix Therapeutics, Inc., priority 2018, published 2022):

Key:
[1] = system: T-cell; experiment: CD25 cell surface staining on T-cells stimulated with anti-CD3 antibody alone (Biological Example 2); assay type: cell-based; conditions: primary human total T-cells, baseline = anti-CD3/anti-CD28 stimulated cells without inhibitor, read-out: CD25 staining, Anti-CD3 stimulation, fold change over baseline; for fold induction at 1 µM: 1 μM compound; for fold induction at 8 µM: 8 μM compound
[2] = system: T-cell; experiment: IL-2 secretion from T-cells stimulated with anti-CD3 antibody alone (Biological Example 2); assay type: cell-based; conditions: primary human total T-cells, read-out: IL-2 secretion, Anti-CD3 stimulation, fold change over baseline; for fold induction at 1 µM: 1 μM compound; for fold induction at 8 µM: 8 μM compound
[3] = target: T1, Cbl-b (Homo sapiens, UniProt Q13191); experiment: Cbl-b activity assay (Cbl-b inhibition assay), TR-FRET of Cbl-b interaction with UbcH5B-Ub; assay type: biochemical; conditions: assay buffer with 100 mM NaCl, 60 nM Src kinase; read-out: Cbl-b activity IC50
How it was run: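 TR-FRET readout of Cbl-b binding to Bodipy-fluorescein N-terminally labeled Ub conjugated to UbcH5B C85K, measured with compound present. After compound incubation, 60 nM Src kinase with 1 mM ATP and 5 mM MgCl2 (final) was added for 1.5 h, then a further 1 h incubation; asterisked values used 50 mM NaCl buffer and 30 nM Src.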

[4] = target: T1, Cbl-b; experiment: Cbl-b inhibition assay (Cbl-b activity assay, FRET, Biological Example 1; 100 mM NaCl, 60 nM Src kinase); assay type: biochemical; conditions: upper bound stated in text lists; read-out: IC50 values in the Cbl-b inhibition assay of Biological Example 1
How it was run: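 FRET read-out: loss of signal marks inhibition. Mix = biotin-Avi-Cbl-b (N-term), Src kinase, UbcH5B-Ub(Bodipy-FL, irreversible conjugate), streptavidin-Tb, assay buffer.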

[5] = system: T-cell; experiment: CD25 cell surface staining on T-cells co-stimulated with anti-CD3 and anti-CD28 antibody (Biological Example 2); assay type: cell-based, human; conditions: Homo sapiens, T-cell, primary human total T-cells, baseline = anti-CD3/anti-CD28 stimulated cells without inhibitor, read-out: CD25 staining, Anti-CD3/Anti-CD28 stimulation, fold change over baseline; for fold induction at 0.3 µM: 0.3 μM compound; for fold induction at 1 µM: 1 μM compound; for fold induction at 4 µM: 4 μM compound
How it was run: (§1)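 No assay protocol given; T-cells stimulated with anti-CD3 alone or anti-CD3 plus anti-CD28, with or without Cbl-b inhibitor. Activation read as IL-2 secretion or CD25 surface staining, expressed as fold over baseline from uninhibited cells […].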

[6] = system: T-cell; experiment: IL-2 secretion from T-cells co-stimulated with anti-CD3 and anti-CD28 antibody (Biological Example 2); assay type: cell-based, human; conditions: Homo sapiens, T-cell, primary human total T-cells, baseline = anti-CD3/anti-CD28 stimulated cells without inhibitor, read-out: IL-2 secretion, Anti-CD3/Anti-CD28 stimulation, fold change over baseline; for fold induction at 0.3 µM: 0.3 μM compound; for fold induction at 1 µM: 1 μM compound; for fold induction at 4 µM: 4 μM compound
How it was run: as §1

T1 sequence (Q13191 36-427): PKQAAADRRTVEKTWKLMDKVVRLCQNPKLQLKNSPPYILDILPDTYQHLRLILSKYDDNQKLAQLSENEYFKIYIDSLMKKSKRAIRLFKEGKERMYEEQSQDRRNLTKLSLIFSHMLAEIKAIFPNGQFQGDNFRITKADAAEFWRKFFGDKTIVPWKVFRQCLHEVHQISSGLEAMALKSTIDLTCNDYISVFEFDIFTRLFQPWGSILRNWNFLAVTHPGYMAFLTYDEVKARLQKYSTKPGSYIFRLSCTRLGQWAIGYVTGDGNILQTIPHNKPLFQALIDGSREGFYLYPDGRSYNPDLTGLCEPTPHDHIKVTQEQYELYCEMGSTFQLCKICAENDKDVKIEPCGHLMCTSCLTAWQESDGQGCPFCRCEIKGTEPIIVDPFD

With `CN1CCN(c2cc3c(c(C(F)(F)F)c2)CN(c2cccc(C4(Cc5nncn5C)COC4)c2)C3=O)C(=O)C1` [Compound 391, 6-(4-Methyl-2-oxopiperazin-1-yl)-2-(3-(3-((4-methyl-4H-1,2,4-triazol-3-yl)methyl)oxetan-3-yl)phenyl)-4-(trifluoromethyl)isoindolin-1-one] the fold induction at 1 µM [1] was 0.801 to 1, the fold induction at 1 µM [2] was 0.051 to 0.1 and the IC50 [3] was < 100 nM. For the same molecule, the IC50 [4] was ≤ 100 nM, the fold induction at 0.3 µM [5] was 1.01 to 1.3 and the fold induction at 1 µM [5] was 1.01 to 1.3. The fold induction at 0.3 µM [6] was 1.01 to 2.5 and the fold induction at 1 µM [6] was 1.01 to 2.5.

With `C[C@H](Cc1nncn1C)c1cccc(N2Cc3c(cc([C@H](C)N4CC[C@H](F)C4)cc3C(F)(F)F)C2=O)c1` [Compound 404, 6-((S)-1-((S)-3-fluoropyrrolidin-1-yl)ethyl)-2-(3-((R)-1-(4-methyl-4H-1,2,4-triazol-3-yl)propan-2-yl)phenyl)-4-(trifluoromethyl)isoindolin-1-one] the fold induction at 1 µM [1] was > 1, the fold induction at 8 µM [1] was > 1 and the fold induction at 1 µM [2] was > 0.201. The fold induction at 8 µM [2] was > 0.201, the IC50 [3] was < 100 nM and the IC50 [4] was ≤ 100 nM. It also gave a fold induction at 0.3 µM [5] of 1.31 to 1.5, a fold induction at 1 µM [5] of 1.31 to 1.5 and a fold induction at 4 µM [5] of 1.31 to 1.5. For the same molecule, the fold induction at 0.3 µM [6] was > 7.5, the fold induction at 1 µM [6] was > 7.5 and the fold induction at 4 µM [6] was > 7.5.

In the case of `C[C@H](Cc1nncn1C)c1cccc(N2Cc3c(cc([C@@H](C)N4CC(O)C4)cc3C(F)(F)F)C2=O)c1` [Compound 405, 6-((R)-1-(3-hydroxyazetidin-1-yl)ethyl)-2-(3-((R)-1-(4-methyl-4H-1,2,4-triazol-3-yl)propan-2-yl)phenyl)-4-(trifluoromethyl)isoindolin-1-one], the fold induction at 1 µM [1] is reported as 0.801 to 1, the fold induction at 8 µM [1] is reported as > 1 and the fold induction at 1 µM [2] is reported as > 0.201. For the same molecule, the fold induction at 8 µM [2] was > 0.201, the IC50 [3] was < 100 nM and the IC50 [4] was ≤ 100 nM. The fold induction at 0.3 µM [5] was 1.01 to 1.3, the fold induction at 1 µM [5] was 1.31 to 1.5 and the fold induction at 4 µM [5] was 1.31 to 1.5. For the same molecule, the fold induction at 0.3 µM [6] was 2.51 to 5, the fold induction at 1 µM [6] was 5 to 7.5 and the fold induction at 4 µM [6] was > 7.5.

In the case of `C[C@H](Cc1nncn1C)c1cccc(N2Cc3c(cc([C@H](C)N4CC(O)C4)cc3C(F)(F)F)C2=O)c1` [Compound 406, 6-((S)-1-(3-hydroxyazetidin-1-yl)ethyl)-2-(3-((R)-1-(4-methyl-4H-1,2,4-triazol-3-yl)propan-2-yl)phenyl)-4-(trifluoromethyl)isoindolin-1-one], the fold induction at 1 µM [1] is reported as > 1, the fold induction at 8 µM [1] is reported as > 1 and the fold induction at 1 µM [2] is reported as > 0.201. The fold induction at 8 µM [2] was > 0.201, the IC50 [3] was < 100 nM and the IC50 [4] was ≤ 100 nM. The fold induction at 0.3 µM [5] was 1.01 to 1.3, the fold induction at 1 µM [5] was 1.31 to 1.5 and the fold induction at 4 µM [5] was 1.31 to 1.5. The fold induction at 0.3 µM [6] was 5 to 7.5, the fold induction at 1 µM [6] was > 7.5 and the fold induction at 4 µM [6] was > 7.5.

`Cn1cnnc1[C@@H]1C[C@@H]1c1cccc(N2Cc3c(cc(CN4CC[C@H](F)C4)cc3C(F)(F)F)C2=O)c1` [Compound 409, 6-(((S)-3-fluoropyrrolidin-1-yl)methyl)-2-(3-((1S,2R)-2-(4-methyl-4H-1,2,4-triazol-3-yl)cyclopropyl)phenyl)-4-(trifluoromethyl)isoindolin-1-one] was tested, and the fold induction at 1 µM [1] was > 1, the fold induction at 8 µM [1] was > 1 and the fold induction at 1 µM [2] was > 0.201. The fold induction at 8 µM [2] was > 0.201, the IC50 [3] was < 100 nM and the IC50 [4] was ≤ 100 nM. The fold induction at 0.3 µM [5] was 1.31 to 1.5, the fold induction at 1 µM [5] was 1.31 to 1.5 and the fold induction at 4 µM [5] was 1.51 to 1.75. For the same molecule, the fold induction at 0.3 µM [6] was 2.51 to 5, the fold induction at 1 µM [6] was > 7.5 and the fold induction at 4 µM [6] was > 7.5.

In the case of `Cn1cnnc1CC1(c2cccc(N3Cc4c(cc(CN5C[C@@H](F)[C@@H](F)C5)cc4C(F)(F)F)C3=O)c2)COC1` [Compound 414, 6-((cis-3,4-Difluoropyrrolidin-1-yl)methyl)-2-(3-(3-((4-methyl-4H-1,2,4-triazol-3-yl)methyl)oxetan-3-yl)phenyl)-4-(trifluoromethyl)isoindolin-1-one], the fold induction at 1 µM [1] is reported as 0.801 to 1, the fold induction at 8 µM [1] is reported as > 1 and the fold induction at 1 µM [2] is reported as 0.151 to 0.2. For the same molecule, the fold induction at 8 µM [2] was > 0.201, the IC50 [3] was < 100 nM and the IC50 [4] was ≤ 100 nM. For the same molecule, the fold induction at 0.3 µM [5] was 1.31 to 1.5, the fold induction at 1 µM [5] was 1.31 to 1.5 and the fold induction at 4 µM [5] was 1.51 to 1.75. The fold induction at 0.3 µM [6] was > 7.5, the fold induction at 1 µM [6] was > 7.5 and the fold induction at 4 µM [6] was > 7.5.

`C[C@H](c1cc2c(c(C(F)(F)F)c1)CN(c1cccc(C3(Cc4nncn4C)COC3)c1)C2=O)N1CCC(F)(F)C1` [Compound 419, (R)-6-(1-(3,3-difluoropyrrolidin-1-yl)ethyl)-2-(3-(3-((4-methyl-4H-1,2,4-triazol-3-yl)methyl)oxetan-3-yl)phenyl)-4-(trifluoromethyl)isoindolin-1-one] was tested, and the fold induction at 1 µM [1] was > 1, the fold induction at 8 µM [1] was > 1 and the fold induction at 1 µM [2] was 0.151 to 0.2. For the same molecule, the fold induction at 8 µM [2] was > 0.201, the IC50 [3] was < 100 nM and the IC50 [4] was ≤ 100 nM. For the same molecule, the fold induction at 0.3 µM [5] was 1.01 to 1.3, the fold induction at 1 µM [5] was 1.31 to 1.5 and the fold induction at 4 µM [5] was 1.31 to 1.5. The fold induction at 0.3 µM [6] was 2.51 to 5, the fold induction at 1 µM [6] was > 7.5 and the fold induction at 4 µM [6] was > 7.5.

In the case of `C[C@@H](c1cc2c(c(C(F)(F)F)c1)CN(c1cccc(C3(Cc4nncn4C)COC3)c1)C2=O)N1CCC(F)(F)C1` [Compound 420, (S)-6-(1-(3,3-difluoropyrrolidin-1-yl)ethyl)-2-(3-(3-((4-methyl-4H-1,2,4-triazol-3-yl)methyl)oxetan-3-yl)phenyl)-4-(trifluoromethyl)isoindolin-1-one], the fold induction at 1 µM [1] is reported as > 1, the fold induction at 8 µM [1] is reported as > 1 and the fold induction at 1 µM [2] is reported as 0.151 to 0.2. The fold induction at 8 µM [2] was > 0.201, the IC50 [3] was < 100 nM and the IC50 [4] was ≤ 100 nM. The fold induction at 0.3 µM [5] was 1.31 to 1.5, the fold induction at 1 µM [5] was 1.31 to 1.5 and the fold induction at 4 µM [5] was 1.31 to 1.5. For the same molecule, the fold induction at 0.3 µM [6] was 2.51 to 5, the fold induction at 1 µM [6] was > 7.5 and the fold induction at 4 µM [6] was > 7.5.

For `Cn1cnnc1CC1(c2cccc(N3Cc4c(cc(CN5CC(C#N)C5)cc4C(F)(F)F)C3=O)c2)COC1` [Compound 423, 1-((2-(3-(3-((4-methyl-4H-1,2,4-triazol-3-yl)methyl)oxetan-3-yl)phenyl)-3-oxo-7-(trifluoromethyl)isoindolin-5-yl)methyl)azetidine-3-carbonitrile], the fold induction at 1 µM [1] was 0.801 to 1, the fold induction at 8 µM [1] was > 1 and the fold induction at 1 µM [2] was 0.151 to 0.2. The fold induction at 8 µM [2] was > 0.201, the IC50 [3] was < 100 nM and the IC50 [4] was ≤ 100 nM. The fold induction at 0.3 µM [5] was 1.01 to 1.3, the fold induction at 1 µM [5] was 1.01 to 1.3 and the fold induction at 4 µM [5] was 1.31 to 1.5. For the same molecule, the fold induction at 0.3 µM [6] was 2.51 to 5, the fold induction at 1 µM [6] was 5 to 7.5 and the fold induction at 4 µM [6] was > 7.5.

In the case of `Cn1cnnc1CC1(c2cccc(N3Cc4c(cc(CN5CC(C)(F)C5)cc4C(F)(F)F)C3=O)c2)COC1` [Compound 424, 6-((3-fluoro-3-methylazetidin-1-yl)methyl)-2-(3-(3-((4-methyl-4H-1,2,4-triazol-3-yl)methyl)oxetan-3-yl)phenyl)-4-(trifluoromethyl)isoindolin-1-one], the fold induction at 1 µM [1] is reported as > 1, the fold induction at 8 µM [1] is reported as > 1 and the fold induction at 1 µM [2] is reported as > 0.201. For the same molecule, the fold induction at 8 µM [2] was > 0.201, the IC50 [3] was < 100 nM and the IC50 [4] was ≤ 100 nM. For the same molecule, the fold induction at 0.3 µM [5] was 1.31 to 1.5, the fold induction at 1 µM [5] was 1.51 to 1.75 and the fold induction at 4 µM [5] was 1.51 to 1.75. The fold induction at 0.3 µM [6] was > 7.5, the fold induction at 1 µM [6] was > 7.5 and the fold induction at 4 µM [6] was > 7.5.

With `Cn1cnnc1CC1(c2cccc(N3Cc4c(cc(CN5CC(C)(C#N)C5)cc4C(F)(F)F)C3=O)c2)COC1` [Compound 425, 3-methyl-1-((2-(3-(3-((4-methyl-4H-1,2,4-triazol-3-yl)methyl)oxetan-3-yl)phenyl)-3-oxo-7-(trifluoromethyl)isoindolin-5-yl)methyl)azetidine-3-carbonitrile] the fold induction at 1 µM [1] was 0.601 to 0.8, the fold induction at 8 µM [1] was < 0.6 and the fold induction at 1 µM [2] was 0.151 to 0.2. The fold induction at 8 µM [2] was 0.051 to 0.1, the IC50 [3] was < 100 nM and the IC50 [4] was ≤ 100 nM. The fold induction at 0.3 µM [5] was 1.01 to 1.3, the fold induction at 1 µM [5] was 1.31 to 1.5 and the fold induction at 4 µM [5] was 1.51 to 1.75. For the same molecule, the fold induction at 0.3 µM [6] was 2.51 to 5, the fold induction at 1 µM [6] was > 7.5 and the fold induction at 4 µM [6] was > 7.5.
